The IC50 is the concentration that inhibits the measured activity by half.

For 57 compounds, IC50 results are on record in patent US20250019387A1 (Frontier Medicines Corporation, priority 0001, published 2025).

Sequence of KRAS G12C and cRAF (Ras-binding domain) interaction (P01116 other isoform, or with tags, fused parts or gaps G12C/C51S/C80L/C118S): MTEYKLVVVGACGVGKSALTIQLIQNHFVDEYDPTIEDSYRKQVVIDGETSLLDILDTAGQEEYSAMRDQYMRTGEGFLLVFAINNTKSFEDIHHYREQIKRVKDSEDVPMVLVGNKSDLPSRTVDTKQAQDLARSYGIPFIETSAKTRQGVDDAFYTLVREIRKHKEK

The test concerns the target KRAS G12C and cRAF (Ras-binding domain) interaction (Homo sapiens (Human), UniProt P01116, C118S/C51S/C80L/G12C). The experiment in a line: Inhibition of KRAS G12C and cRAF binding (AlphaScreen). Conditions: additional exemplary compounds; KRAS G12C and cRAF binding; read-out: RAF1 RBD IC50. The gist of the method: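 IC50 values come from 4-parameter nonlinear regression of AlphaScreen signal (680 nm excitation, 570 nm emission). Compound plates sat 19-20 h at room temperature before RBD and donor/acceptor beads were added in Hepes pH 7.4 buffer with 150 mM NaCl, 5 mM MgCl2, 2% DMSO for 60-90 min; biotin-AviTag-GST replaced RBD to flag assay-technology interferers.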
For orientation: Bead proximity is the source of the signal in Alpha formats.
Regarding `C=CC(=O)CCCN(C)c1nc(OC[C@@H]2CCCN2C)nc2c1CCN(c1cccc3ccccc13)C2`, the IC50 was over 500 nM.

`CN(C)C(=O)/C=C/C(=O)N1CC[C@@H](N(C)c2nc(OCC34CCCN3CCC4)nc3c2CCN(c2cccc4cccc(Cl)c24)C3)C1`: the IC50 is over 500 nM.

As for `C=CC(=O)CCCCN(C)c1nc(OC[C@@H]2CCCN2C)nc2c1CCN(c1cccc3ccccc13)C2`, the 50% inhibitory concentration (IC50) lay in the range of 100 to 500 nM.

As for `CN(C)C(=O)/C=C/C(=O)N1CC[C@@H](N(C)c2nc(OCC34CCCN3CCC4)nc3c(F)c(-c4cccc5cccc(Cl)c45)ncc23)C1`, the IC50 was over 500 nM.

Regarding `C/C=C/C(=O)CN(C)c1nc(OC[C@@H]2CCCN2C)nc2c1CCN(c1cccc3ccccc13)C2`, the IC50 was over 500 nM.

Regarding `CN(C)C(=O)/C=C/C(=O)N1CC(CN(C)c2nc(OCC34CCCN3CCC4)nc3c2CCN(c2cccc4cccc(Cl)c24)C3)C1`, the IC50 was over 500 nM.

As to `CN(CCC1CN(C#N)C1)c1nc(OCC23CCCN2CCC3)nc2c1CCN(c1cccc3cccc(Cl)c13)C2`, the IC50 is 100 to 500 nM.

On to `O=C(/C=C/CN1CCOCC1)N1CC2CC(C1)N2c1nc(OC[C@@]23CCCN2C[C@H](F)C3)nc2c(F)c(-c3cccc4cccc(Cl)c34)ncc12`, for which the IC50 is over 500 nM.

On to `C=CC(=O)N1CC[C@@H](N(C)c2nc(OC[C@@H]3CCCN3C)nc3c(F)c(-c4cccc5cccc(Cl)c45)ncc23)C1`, for which the IC50 was over 500 nM.

Turning to `O=C(/C=C/CN1CCOCC1)N1C2CC1CN(c1nc(OC[C@@]34CCCN3C[C@H](F)C4)nc3c(F)c(-c4cccc5cccc(Cl)c45)ncc13)C2`, the IC50 is over 500 nM.

With `Cc1ncc(/C=C/C(=O)NCCN(C)c2nc(OCC34CCCN3CCC4)nc3c2CCN(c2cccc4cccc(Cl)c24)C3)o1`, the IC50 lay within 100 to 500 nM.

Take `O=C(/C=C/CN1CCOCC1)N1C[C@@H]2C[C@H]1CN2c1nc(OC[C@@]23CCCN2C[C@H](F)C3)nc2c(F)c(-c3cccc4cccc(Cl)c34)ncc12`: the IC50 is over 500 nM.

As to `CN(C)C/C=C/S(=O)(=O)CCN(C)c1nc(OCC23CCCN2CCC3)nc2c1CCN(c1cccc3cccc(Cl)c13)C2`, the IC50 is under 10 nM.

As to `O=C(/C=C/CN1CCOCC1)N1C[C@H]2C[C@@H]1CN2c1nc(OC[C@@]23CCCN2C[C@H](F)C3)nc2c(F)c(-c3cccc4cccc(Cl)c34)ncc12`, the half-maximal inhibitory concentration (IC50) is over 500 nM.

As to `CN(CCS(=O)(=O)/C=C/CN1CC(F)C1)c1nc(OCC23CCCN2CCC3)nc2c1CCN(c1cccc3cccc(Cl)c13)C2`, the 50% inhibitory concentration (IC50) was in the range of 100 to 500 nM.

Consider `O=C(/C=C/CN1CCOCC1)N1C[C@H]2CC[C@@H](C1)N2c1nc(OC[C@@]23CCCN2C[C@H](F)C3)nc2c(F)c(-c3cccc4cccc(Cl)c34)ncc12`, for which the IC50 is over 500 nM.

Take `O=C(/C=C/CN1CCOCC1)N1[C@@H]2CC[C@H]1CN(c1nc(OC[C@@]34CCCN3C[C@H](F)C4)nc3c(F)c(-c4cccc5cccc(Cl)c45)ncc13)C2`: the IC50 was over 500 nM.

For the compound `CN(CC1CN(C#N)C1)c1nc(OC[C@@H]2CCCN2C)nc2c(F)c(-c3cccc4cccc(Cl)c34)ncc12`, the IC50 was over 500 nM.

`Cc1nccc(/C=C/C(=O)N2C[C@H]3CC[C@@H](C2)N3c2nc(OC[C@@]34CCCN3C[C@H](F)C4)nc3c(F)c(-c4cccc5cccc(Cl)c45)ncc23)n1`: the 50% inhibitory concentration (IC50) was over 500 nM.

Consider `Cc1nccc(/C=C/C(=O)N2[C@@H]3CC[C@H]2CN(c2nc(OC[C@@]45CCCN4C[C@H](F)C5)nc4c(F)c(-c5cccc6cccc(Cl)c56)ncc24)C3)n1`, for which the IC50 was over 500 nM.

Turning to `Cc1nccc(/C=C/C(=O)N2CCN(c3nc(OC[C@@]45CCCN4C[C@H](F)C5)nc4c(F)c(-c5cccc6cccc(Cl)c56)ncc34)C3CC32)n1` (stereo partly drawn), the IC50 is over 500 nM.

For `CN(c1nc(OCC23CCCN2CCC3)nc2c(F)c(-c3cccc4cccc(Cl)c34)ncc12)[C@@H]1CCN(C#N)C1`, the IC50 is under 10 nM.

Turning to `O=C(/C=C/CN1C2CCC1COC2)N1CCN(c2nc(OC[C@@]34CCCN3C[C@H](F)C4)nc3c(F)c(-c4cccc5cccc(Cl)c45)ncc23)C2CC21` (stereo partly drawn), the IC50 was over 500 nM.

With `CN(C)C/C=C/C(=O)N1CC[C@@H](N(C)c2nc(OCC34CCCN3CCC4)nc3c2CCN(c2cccc4cccc(Cl)c24)C3)C1`, the concentration for half-maximal inhibition (IC50) lay within 10 to 100 nM.

In the case of `C=CC(=O)N1CC[C@@H](N(C)c2nc(OC[C@@]34CCCN3C[C@H](F)C4)nc3c(F)c(-c4cccc5cccc(C(F)(F)F)c45)ncc23)C1`, the IC50 was 10 to 100 nM.

As to `COC/C=C/C(=O)N1CC[C@@H](N(C)c2nc(OCC34CCCN3CCC4)nc3c(F)c(-c4cccc5cccc(Cl)c45)ncc23)C1`, the IC50 was in the range of 10 to 100 nM.

As to `O=C(/C=C/CN1[C@@H]2CC[C@H]1COC2)N1CCN(c2nc(OC[C@@]34CCCN3C[C@H](F)C4)nc3c(F)c(-c4cccc5cccc(Cl)c45)ncc23)CC12CC2`, the half-inhibitory concentration (IC50) is over 500 nM.

Regarding `CN(CC1CN(C#N)C1)c1nc(OCC23CCCN2CCC3)nc2c1CCN(c1cccc3cccc(Cl)c13)C2`, the IC50 was 100 to 500 nM.

Turning to `O=C(/C=C/CN1[C@@H]2CC[C@H]1COC2)N1CCN(c2nc(OC[C@@]34CCCN3C[C@H](F)C4)nc3c(F)c(-c4cccc5cccc(Cl)c45)ncc23)C2(CC2)C1`, the IC50 is over 500 nM.

Turning to `C=CS(=O)(=O)CCN(C)c1nc(OCC23CCCN2CCC3)nc2c(F)c(-c3cccc4cccc(Cl)c34)ncc12`, the IC50 was under 10 nM.

Take `C#Cc1c(F)ccc2cccc(-c3ncc4c(N(C)[C@@H]5CCN(C(=O)/C=C/c6ccncc6)C5)nc(OC[C@@]56CCCN5C[C@H](F)C6)nc4c3F)c12`: the IC50 was over 500 nM.

Take `C#Cc1c(F)ccc2cccc(-c3ncc4c(N(C)[C@@H]5CCN(C(=O)/C=C/c6ccccn6)C5)nc(OC[C@@]56CCCN5C[C@H](F)C6)nc4c3F)c12`: the IC50 was over 500 nM.

Turning to `C=CC(=O)N1CC[C@@H](N(C)c2nc(OCC34CCCN3CCC4)nc3c(F)c(-c4cccc5cccc(Cl)c45)ncc23)C1`, the half-inhibitory concentration (IC50) is 100 to 500 nM.

Take `C#Cc1c(F)ccc2cccc(-c3ncc4c(N(C)[C@@H]5CCN(C(=O)/C=C/c6cccnc6)C5)nc(OC[C@@]56CCCN5C[C@H](F)C6)nc4c3F)c12`: the half-inhibitory concentration (IC50) was over 500 nM.

Take `C=CC(=O)N1CC[C@@H](N(C)c2nc(OC[C@@]34CCCN3C[C@H](F)C4)nc3c2CCN(c2cccc4cccc(Cl)c24)C3)C1`: the IC50 fell in the range of 100 to 500 nM.

As to `C=CC(=O)N1CC[C@@H](C)[C@@H](Nc2nc(OC[C@@]34CCCN3C[C@H](F)C4)nc3c(F)c(-c4cccc5cccc(Cl)c45)ncc23)C1`, the IC50 was over 500 nM.

As to `C=CS(=O)(=O)C1CCCN(c2nc(OCC34CCCN3CCC4)nc3c2CCN(c2cccc4cccc(Cl)c24)C3)C1` (stereo not drawn), the half-maximal inhibitory concentration (IC50) lay within 10 to 100 nM.

In the case of `C=CC(=O)N1CCC[C@@H](Nc2nc(OC[C@@]34CCCN3C[C@H](F)C4)nc3c(F)c(-c4cccc5cccc(Cl)c45)ncc23)C1`, the concentration for half-maximal inhibition (IC50) was over 500 nM.

For `C=CC(=O)N1CC2CC(Nc3nc(OC[C@@]45CCCN4C[C@H](F)C5)nc4c(F)c(-c5cccc6cccc(Cl)c56)ncc34)C1C2` (stereo partly drawn), the concentration for half-maximal inhibition (IC50) is over 500 nM.

As for `CN(C)C/C=C/C(=O)N1CC[C@@H](N(C)c2nc(OC[C@@H]3CCCN3C)nc3c2CCN(c2cccc4cccc(Cl)c24)C3)C1`, the 50% inhibitory concentration (IC50) lay within 100 to 500 nM.

In the case of `C=CC(=O)N1C[C@@H](C)C[C@@H](Nc2nc(OC[C@@]34CCCN3C[C@H](F)C4)nc3c(F)c(-c4cccc5cccc(Cl)c45)ncc23)C1`, the IC50 is over 500 nM.

Consider `C=CC(=O)N1CC[C@@H](N(C)c2nc(OC[C@@]34CCCN3C[C@H](F)C4)nc3c(F)c(-c4cccc5cccc(Cl)c45)ncc23)C1`, for which the IC50 fell in the range of 10 to 100 nM.

Regarding `C=CC(=O)N1C[C@H](C)C[C@H](Nc2nc(OC[C@@]34CCCN3C[C@H](F)C4)nc3c(F)c(-c4cccc5cccc(Cl)c45)ncc23)C1`, the 50% inhibitory concentration (IC50) is over 500 nM.

With `C=CC(=O)N1CC[C@H](F)[C@@H](N(C)c2nc(OC[C@@]34CCCN3C[C@H](F)C4)nc3c(F)c(-c4cccc5cccc(Cl)c45)ncc23)C1`, the half-inhibitory concentration (IC50) is over 500 nM.

On to `Cc1cc(/C=C/C(=O)N2CCC[C@@H](N(C)c3nc(OC[C@@]45CCCN4C[C@H](F)C5)nc4c(F)c(-c5cccc6cccc(Cl)c56)ncc34)C2)nc(C)n1`, for which the IC50 was over 500 nM.

Turning to `C#Cc1c(F)ccc2cccc(-c3ncc4c(N(C)[C@@H]5CCCN(C(=O)/C=C/c6cc(C)nc(C)n6)C5)nc(OC[C@@]56CCCN5C[C@H](F)C6)nc4c3F)c12`, the IC50 lay within 100 to 500 nM.

Consider `C=CC(=O)N1CC[C@H](C)[C@H](Nc2nc(OC[C@@]34CCCN3C[C@H](F)C4)nc3c(F)c(-c4cccc5cccc(Cl)c45)ncc23)C1`, for which the IC50 is over 500 nM.

Regarding `C=CC(=O)N1CC[C@H](O)[C@@H](N(C)c2nc(OC[C@@]34CCCN3C[C@H](F)C4)nc3c(F)c(-c4cccc5cccc(Cl)c45)ncc23)C1`, the half-maximal inhibitory concentration (IC50) lay within 10 to 100 nM.

In the case of `C=CC(=O)N1CC[C@@H](F)[C@@H](N(C)c2nc(OC[C@@]34CCCN3C[C@H](F)C4)nc3c(F)c(-c4cccc5cccc(Cl)c45)ncc23)C1`, the half-maximal inhibitory concentration (IC50) was over 500 nM.

Turning to `C=CC(=O)N1CCC(CNc2nc(OC[C@@]34CCCN3C[C@H](F)C4)nc3c(F)c(-c4cccc5cccc(Cl)c45)ncc23)C1` (stereo partly drawn), the concentration for half-maximal inhibition (IC50) is over 500 nM.

Take `Cc1noc(/C=C/C(=O)NCCN(C)c2nc(OCC34CCCN3CCC4)nc3c2CCN(c2cccc4cccc(Cl)c24)C3)n1`: the IC50 was 100 to 500 nM.

Take `C=CC(=O)N1CCCC1CNc1nc(OC[C@@]23CCCN2C[C@H](F)C3)nc2c(F)c(-c3cccc4cccc(Cl)c34)ncc12` (stereo partly drawn): the concentration for half-maximal inhibition (IC50) is over 500 nM.

In the case of `Cc1nc(/C=C/C(=O)NCCN(C)c2nc(OCC34CCCN3CCC4)nc3c2CCN(c2cccc4cccc(Cl)c24)C3)no1`, the concentration for half-maximal inhibition (IC50) is over 500 nM.

`C=CC(=O)N1CC[C@@H](O)[C@H](N(C)c2nc(OC[C@@]34CCCN3C[C@H](F)C4)nc3c(F)c(-c4cccc5cccc(Cl)c45)ncc23)C1`: the IC50 is over 500 nM.

Regarding `CN(CCS(=O)(=O)/C=C/CN1CCC(F)(F)C1)c1nc(OCC23CCCN2CCC3)nc2c1CCN(c1cccc3cccc(Cl)c13)C2`, the IC50 was over 500 nM.

In the case of `C=CC(=O)N1CCC(CN(C)c2nc(OC[C@@]34CCCN3C[C@H](F)C4)nc3c(F)c(-c4cccc5cccc(Cl)c45)ncc23)C1` (stereo partly drawn), the IC50 was over 500 nM.

On to `CN(c1nc(OCC23CCCN2CCC3)nc2c1CCN(c1cccc3cccc(Cl)c13)C2)[C@@H]1CCN(C(=O)/C=C/CN2CC(F)(F)C2)C1`, for which the half-inhibitory concentration (IC50) lay within 100 to 500 nM.
